Measured values as given in article PMC8187479, “Sugar phosphate activation of the stress sensor eIF2B” (Nature Communications, 2021).
Peptide text beside a SMILES is read from it.

These molecules were tested against T1, eIF2Bα (Homo sapiens, UniProt Q14232) (assay: MIDAS (mass spectrometry integrated with equilibrium dialysis) metabolite binding screen). Details: MIDAS metabolite binding screen with eIF2Bα; sheet "eIF2Ba".
T1 construct: made in house; host or cells: E. coli BL21(DE3)
T1 sequence (Q14232 1-305): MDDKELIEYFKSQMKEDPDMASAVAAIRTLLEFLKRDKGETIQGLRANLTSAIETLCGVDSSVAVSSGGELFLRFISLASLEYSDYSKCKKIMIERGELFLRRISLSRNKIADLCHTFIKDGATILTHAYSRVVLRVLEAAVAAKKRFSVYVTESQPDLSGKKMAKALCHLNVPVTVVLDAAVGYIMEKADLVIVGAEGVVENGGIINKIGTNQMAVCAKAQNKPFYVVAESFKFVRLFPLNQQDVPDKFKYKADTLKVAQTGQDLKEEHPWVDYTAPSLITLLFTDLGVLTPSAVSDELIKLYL
Summary of the method: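 Hits called at Storey q < 0.1 on z-scores of PCA-corrected log2 fold change between protein and metabolite chambers, quantified by FIA-MS in triplicate.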

Row | log2(corrected fold change) | Structure (SMILES)
1 | 0.00577 | O=C(O)CCCCCCCCCCC(=O)O [Dodecanedioic acid]
2 | -0.04113 | CNC[C@H](O)c1ccc(O)c(O)c1 [Epinephrine]
3 | 0.0208 | NCCO [Ethanolamine]
4 | -0.03876 | CCC(C(=O)O)C(=O)O [Ethylmalonic acid]
5 | -0.0588 | Cc1cc2nc3c(=O)[nH]c(=O)nc-3n(C[C@H](O)[C@H](O)[C@H](O)COP(=O)(O)OP(=O)(O)OC[C@H]3O[C@@H](n4cnc5c(N)ncnc54)[C@H](O)[C@@H]3O)c2cc1C [Flavin adenine dinucleotide]
6 | -0.02054 | Nc1nc(=O)c2nc(CNc3ccc(C(=O)N[C@@H](CCC(=O)O)C(=O)O)cc3)cnc2[nH]1 [Folic acid]
7 | -0.02052 | OC[C@H]1O[C@H](OC2[C@@H](O)[C@H](O)C(O)[C@H](O)[C@@H]2O)[C@H](O)[C@@H](O)[C@H]1O (some centres unmarked) [Galactinol]
8 | 0.01629 | O=C1O[C@H](CO)[C@@H](O)[C@H](O)[C@H]1O [Glucono delta-lactone]
9 | -0.06864 | O=C(O)CO [Glycolic acid]
10 | -0.02095 | O=CC(=O)O [Glyoxylate]
11 | -0.07145 | Nc1nc2c(ncn2[C@@H]2O[C@H](COP(=O)(O)OP(=O)(O)O)[C@@H](O)[C@H]2O)c(=O)[nH]1 [Guanosine 5-diphosphate]
12 | 0.01196 | Nc1nc2c(ncn2[C@@H]2O[C@H](CO)[C@@H](O)[C@H]2O)c(=O)[nH]1 [Guanosine]
13 | 0.07626 | O=C(O)CNC(=O)c1ccccc1 [Hippuric acid]
14 | -0.04906 | O=C(O)C(=O)CO [Hydroxypyruvate]
15 | 0.1853 | CC(C)CC(=O)SCCNC(=O)CCNC(=O)[C@H](O)C(C)(C)COP(=O)(O)OP(=O)(O)OC[C@H]1O[C@@H](n2cnc3c(N)ncnc32)[C@H](O)[C@@H]1OP(=O)(O)O [Isovaleryl coenzyme A]
16 | 0.06742 | O=C(O)CCC(=O)C(=O)O [Ketoglutaric acid]
17 | 0.0004222 | C[C@H](N)C(=O)O [L-Alanine]

Row | log2(corrected fold change) | Structure (SMILES)
18 | -0.00688 | CC[C@@H](C)[C@H](N)C(=O)O [L-Alloisoleucine]
19 | -0.01554 | NCCC(=O)N[C@@H](Cc1cnc[nH]1)C(=O)O [L-Carnosine]
20 | -0.03443 | N[C@@H](CCSC[C@H](N)C(=O)O)C(=O)O [L-Cystathionine]
21 | 0.001606 | N[C@@H](CS(=O)(=O)O)C(=O)O [L-Cysteic acid]
22 | 0.04101 | N[C@@H](CSSC[C@H](N)C(=O)O)C(=O)O [L-Cystine]
23 | -0.0359 | C[C@@H]1O[C@H](OP(=O)(O)O)[C@@H](O)[C@H](O)[C@@H]1O [L-Fucose 1-phosphate]
24 | -0.06063 | C[C@H](O)[C@@H](O)[C@@H](O)[C@H](O)C=O [L-Fucose]
25 | -0.0058 | O=C(O)CC[C@H](O)C(=O)O [L-Hydroxyglutaric acid]
26 | -0.00688 | CC[C@H](C)[C@H](N)C(=O)O [L-Isoleucine]
27 | -0.02892 | C[C@H](O)C(=O)O [L-Lactic acid]
28 | -0.00688 | CC(C)C[C@H](N)C(=O)O [L-Leucine]
29 | -0.01079 | O=C(O)C[C@H](O)C(=O)O [L-Malic acid]
30 | -0.04409 | N[C@@H](Cc1ccccc1)C(=O)O [L-Phenylalanine]
31 | -0.0272 | N[C@@H](CCCCN[C@@H](CCC(=O)O)C(=O)O)C(=O)O [L-Saccharopine]
32 | -0.04824 | N[C@@H](CO)C(=O)O [L-Serine]
33 | -0.05619 | C[C@@H](O)[C@H](N)C(=O)O [L-Threonine]

Row | Structure (SMILES) | log2(corrected fold change)
34 | O=C(O)CCCC(=O)O [Glutaric acid] | -0.03876
35 | Nc1nc2c(ncn2[C@@H]2O[C@H](COP(=O)(O)OP(=O)(O)O[C@H]3O[C@H](CO)[C@@H](O)[C@H](O)[C@@H]3O)[C@@H](O)[C@H]2O)c(=O)[nH]1 [Guanosine diphosphate mannose] | 0.001828
36 | COc1cc(CC(=O)O)ccc1O [Homovanillic acid] | -0.006498
37 | O=C[C@H](O)[C@@H](O)[C@@H](O)CO [L-Arabinose_1] | 0.02262
38 | NC(=O)NCCC[C@H](N)C(=O)O [L-Citrulline] | -0.01086
39 | O=C1O[C@H]([C@@H](O)CO)[C@H](O)[C@@H]1O [L-Gulonic acid gamma-lactone] | 0.02733
40 | C[N+](C)(C)CCOP(=O)([O-])OC[C@H](O)CO [L-alpha-Glycerophosphorylcholine] | 0.1951

Same assay, conditions: MIDAS screen, sheet eIF2Ba; metabolites screened in pools 1-4; p-value and q-value given

Row | log2(corrected fold change) | Structure (SMILES)
41 | -0.03543 | Nc1nc2c(c(=O)[nH]1)N=C(CNc1ccc(C(=O)N[C@@H](CCC(=O)O)C(=O)O)cc1)CN2 [Dihydrofolic acid]
42 | -0.08021 | CC1CNC(=O)NC1=O (centres unmarked) [Dihydrothymine]
43 | -0.08721 | O=C1CCNC(=O)N1 [Dihydrouracil]
44 | -0.08009 | CN(C)c1ncnc2nc[nH]c12 [Dimethylaminopurine]
45 | -0.4944 | OC[C@@H](O)[C@H](O)[C@H](O)[C@@H](O)CO [Dulcitol]
46 | 0.129 | Nc1nc(=O)c2c([nH]1)NC[C@@H](CNc1ccc(C(=O)N[C@@H](CCC(=O)O)C(=O)O)cc1)N2C=O [Folinic acid]
47 | 0.1652 | N[C@@H](CCC(=O)N[C@@H](CS)C(=O)O)C(=O)O [Gamma-Glu-Cys]
48 | 0.09175 | O=C(CO)COP(=O)(O)O [Glycerone phosphate]
49 | 0.1469 | NC(N)=NCC(=O)O [Guanidineacetic acid]
50 | 0.2851 | Nc1nc2nc[nH]c2c(=O)[nH]1 [Guanine]
51 | 1.415 | Nc1nc2c(ncn2[C@@H]2O[C@H](COP(=O)(O)O)[C@@H](O)[C@H]2O)c(=O)[nH]1 [Guanosine 5-monophosphate]
52 | 0.3966 | Nc1nc2c(ncn2[C@@H]2O[C@H](COP(=O)(O)OP(=O)(O)OP(=O)(O)O)[C@@H](O)[C@H]2O)c(=O)[nH]1 [Guanosine 5-triphosphate]
53 | 0.1325 | NCCc1c[nH]cn1 [Histamine]
54 | -0.08584 | O=C(O)Cc1cc(O)ccc1O [Homogentisic acid]
55 | 0.136 | O=c1[nH]cnc2nc[nH]c12 [Hypoxanthine]
56 | -0.2055 | O=c1[nH]cnc2c1ncn2[C@@H]1O[C@H](COP(=O)(O)OP(=O)(O)OP(=O)(O)O)[C@@H](O)[C@H]1O [Inosine 5-triphosphate]
57 | 0.3045 | O=c1[nH]cnc2c1ncn2[C@@H]1O[C@H](CO)[C@@H](O)[C@H]1O [Inosine]
58 | -0.09012 | CC(C)C(=O)NCC(=O)O [Isobutyrylglycine]
59 | -0.3372 | OC[C@H]1O[C@H](OC[C@H]2OC(O)[C@H](O)[C@@H](O)[C@@H]2O)[C@H](O)[C@@H](O)[C@@H]1O (some centres unmarked) [Isomaltose]

Row | log2(corrected fold change) | Structure (SMILES)
60 | -0.1029 | CC[C@H](N)C(=O)O [L-2-Aminobutyric acid]
61 | -0.1354 | O[C@@H]1[C@@H](O)[C@@H](O)CO[C@H]1O [L-Arabinose]
62 | 0.07649 | NC(=O)C[C@H](N)C(=O)O [L-Asparagine]
63 | 0.03257 | N[C@@H](CC(=O)O)C(=O)O [L-Aspartate]
64 | -0.1221 | N[C@@H](CS)C(=O)O [L-Cysteine]
65 | -0.07946 | O=C1C[C@@H](C(=O)O)NC(=O)N1 [L-Dihydroorotic acid]
66 | 0.1976 | NC(=O)CC[C@H](N)C(=O)O [L-Glutamine]
67 | 0.05971 | N[C@@H](Cc1c[nH]cn1)C(=O)O [L-Histidine]
68 | 0.1418 | Nc1ccccc1C(=O)C[C@H](N)C(=O)O [L-Kynurenine]
69 | -0.06897 | NCCCC[C@H](N)C(=O)O [L-Lysine]
70 | 0.06465 | CSCC[C@H](N)C(=O)O [L-Methionine]
71 | -0.07553 | O=C(O)[C@@H]1CCCCN1 [L-Pipecolic acid]
72 | -0.05584 | O=C(O)[C@@H]1CCCN1 [L-Proline]
73 | -0.09309 | O=C(O)[C@@H]1CCC(O)=N1 [L-Pyroglutamic acid]
74 | -0.1354 | O=C(CO)[C@@H](O)[C@@H](O)CO [L-Ribulose]
75 | 0.08785 | N[C@@H](Cc1c[nH]c2ccccc12)C(=O)O [L-Tryptophan]
76 | -0.07845 | CC(C)[C@H](N)C(=O)O [L-Valine]
77 | -0.1203 | N[C@@H](CC(=O)O)C(=O)N[C@@H](Cc1ccccc1)C(=O)O [L-a-Aspartyl-L-phenylalanine] (H-Asp-Phe-OH)

Row | Structure (SMILES) | log2(corrected fold change)
78 | NC(=O)NCCCC[C@H](N)C(=O)O [Homocitrulline] | 0.1565
79 | NCCS(=O)O [Hypotaurine] | 0.03998
80 | N[C@@H](CCC(=O)O)C(=O)O [L-Glutamic acid] | -0.006334
